The target in experiment [1] is T1, α4β2*-nAChR (Mus musculus, UniProt O70174+Q9ERK7). Kind of experiment: biochemical.
The target in experiment [2] is T1, α4β2*-nAChR. Format: biochemical.
The target in experiment [3] is T1, α4β2*-nAChR. The conditions noted are these: cited from earlier work.
Experiment [4] concerns the target high affinity epibatidine binding sites (Mus musculus, UniProt O70174+Q9ERK7). As to the kind of experiment: biochemical.
The target of experiment [5] is epibatidine binding sites (Mus musculus, UniProt O70174+Q9ERK7).
The test system of a further experiment is α4β2-nAChR. The conditions noted are these: read-out: IC50 for desensitization by nicotine; transfected cells; cited from earlier work.
The target of experiment [6] is T1, α4β2*-nAChR. The conditions noted are these: total efflux normalized to baseline.
The subject of experiment [7] is α4β2*-nAChR binding sites. The conditions noted are these: mice treated chronically with nicotine; cited from earlier work.
Setting [8] is: IC50 for desensitization of the LS component.
Setting [9] is: HS EC50 for 86Rb+ efflux from Marks et al., 1999, errors by Taylor's expansion.
Setting [10] is: LS EC50 for 86Rb+ efflux from Marks et al., 1999, errors by Taylor's expansion.
Where [11] appears, read: cortex, nicotine infusion 0.5 mg/kg/hr.
[12] abbreviates: cortex, nicotine infusion 4.0 mg/kg/hr.
Where [13] appears, read: thalamus, nicotine infusion 0.5 mg/kg/hr.
Setting [14] is: thalamus, nicotine infusion 4.0 mg/kg/hr.

“And” between values parts separate entries of the source, which are not always exact repeats. Equal values may be shown once. Read-outs that look alike come from different tables or passages of the source.

Chain of epibatidine binding sites (Q9ERK7 26-501): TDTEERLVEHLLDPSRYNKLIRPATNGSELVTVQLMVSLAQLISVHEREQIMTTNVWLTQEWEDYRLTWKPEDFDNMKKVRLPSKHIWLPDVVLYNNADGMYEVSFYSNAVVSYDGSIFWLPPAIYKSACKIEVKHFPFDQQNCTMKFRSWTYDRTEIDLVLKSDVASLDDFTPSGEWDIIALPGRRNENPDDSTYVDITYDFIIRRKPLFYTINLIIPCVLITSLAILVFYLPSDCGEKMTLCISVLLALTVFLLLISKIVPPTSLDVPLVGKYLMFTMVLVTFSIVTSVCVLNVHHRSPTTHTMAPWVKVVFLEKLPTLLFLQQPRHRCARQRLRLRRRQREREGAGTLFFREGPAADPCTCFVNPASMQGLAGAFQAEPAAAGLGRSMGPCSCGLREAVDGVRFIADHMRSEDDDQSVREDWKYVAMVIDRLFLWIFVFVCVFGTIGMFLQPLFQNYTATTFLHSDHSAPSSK
Chain of epibatidine binding sites (O70174 31-629): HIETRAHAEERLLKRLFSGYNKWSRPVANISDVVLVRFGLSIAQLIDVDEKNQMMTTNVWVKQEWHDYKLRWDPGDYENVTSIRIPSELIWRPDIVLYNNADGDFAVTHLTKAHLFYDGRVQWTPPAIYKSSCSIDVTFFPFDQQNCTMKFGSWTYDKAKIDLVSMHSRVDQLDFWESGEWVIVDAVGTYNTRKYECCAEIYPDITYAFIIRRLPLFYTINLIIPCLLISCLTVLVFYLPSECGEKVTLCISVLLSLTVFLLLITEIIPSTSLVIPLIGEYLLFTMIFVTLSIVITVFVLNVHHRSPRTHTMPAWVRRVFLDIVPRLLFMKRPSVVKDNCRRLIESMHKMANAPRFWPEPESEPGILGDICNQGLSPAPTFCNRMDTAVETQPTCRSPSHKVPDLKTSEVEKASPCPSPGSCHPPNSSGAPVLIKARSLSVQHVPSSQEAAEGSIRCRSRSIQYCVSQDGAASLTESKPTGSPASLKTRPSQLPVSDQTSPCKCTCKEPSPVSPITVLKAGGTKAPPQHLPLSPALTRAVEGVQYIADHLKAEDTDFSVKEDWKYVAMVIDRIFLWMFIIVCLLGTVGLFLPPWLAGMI
Chain of high affinity epibatidine binding sites (Q9ERK7 26-501): as the sequence (Q9ERK7 26-501) above
Chain of high affinity epibatidine binding sites (O70174 31-629): as the sequence (O70174 31-629) above
T1 sequence (Q9ERK7 26-501): as the sequence (Q9ERK7 26-501) above
T1 sequence (O70174 31-629): as the sequence (O70174 31-629) above

As for `Clc1ccc(C2CC3CCC2N3)cn1` (racemic) [epibatidine, (±)-epibatidine], at α4β2*-nAChR [1], the “Ratio KI High Affinity Binding/Desensitization IC50” value came to 0.065±0.022; the “Ratio: HS EC50/Desensitization IC50” value was determined as 154±44; the “Ratio: LS EC50/Desensitization IC50” value was 6000 and 6000±870. Moreover, at α4β2*-nAChR [1] (IC50 Desensitization), the 50% inhibitory concentration (IC50) worked out at 370 ± 20 pM. The concentration for half-maximal inhibition (IC50) on α4β2*-nAChR [1] (IC50 for desensitization of the HS component) turned out to be 330 ± 90 pM. Further, the half-maximal inhibitory concentration (IC50) on α4β2*-nAChR [1] (setting [8]) is 380 ± 90 pM. In addition, on α4β2*-nAChR [2], the “% des” value is 69.9 ± 6.1% and 64.5 ± 11.7% and 96.7 ± 8.9% and 93.8 ± 7.4%. At α4β2*-nAChR [3] (mouse brain synaptosomes), the “Difference in EC50 values for stimulation of HS and LS responses” value (“Difference in EC50 values” below) is 39 fold. In experiment [4], this molecule came in with a Ki of 24 ± 8 pM.
As to `O=c1cccc2n1C[C@@H]1CNC[C@H]2C1` [cytisine], at α4β2*-nAChR [1], the “Ratio KI High Affinity Binding/Desensitization IC50” value was 0.119±0.011. In addition, at α4β2*-nAChR [1] (setting [9]), the “Ratio: HS EC50/Desensitization IC50” value is recorded as 4.8. The IC50 on α4β2*-nAChR [1] (IC50 Desensitization) is 2700 ± 200 pM; at α4β2*-nAChR [1] (setting [8]) it was 5400 ± 1400 pM. In addition, the “Ratio: LS EC50/Desensitization IC50” value at α4β2*-nAChR [1] (setting [10]) worked out at 56000±23000. For the same molecule, at α4β2*-nAChR [3], the “Difference in EC50 values” value is on record as 11,500 fold. Besides, the Ki in experiment [4] was found to be 320 ± 20 pM.
In the case of `CNC(=O)OCC[N+](C)(C)C.[Cl-]` [methylcarbachol, methycarbachol chloride], the “Ratio: HS EC50/Desensitization IC50” value at α4β2*-nAChR [1] (setting [9]) stood at 380. The “Ratio: LS EC50/Desensitization IC50” value on α4β2*-nAChR [1] (setting [10]) was 56,000. For the same molecule, the “Ratio KI High Affinity Binding/Desensitization IC50” value at α4β2*-nAChR [1] (errors by Taylor's expansion) is listed as 0.156±0.042. For the same molecule, the “% des” value on α4β2*-nAChR [2] was 50.9 ± 8.8% and 56.0 ± 8.1% and 94.3 ± 7.3% and 88.7 ± 6.4%. Further, the “Difference in EC50 values” value on α4β2*-nAChR [3] (mouse brain synaptosomes) is given as 38 fold. Moreover, in experiment [4] (read-out: Ki, high affinity epibatidine binding), the Ki worked out at 7900 ± 1700 pM.
For the molecule `CN1CCC[C@H]1c1cccnc1` [nicotine], the “[125I]-Epibatidine Bound” value in experiment [5] (setting [11]) amounted to 127.9±1.1 fmol/mg protein; in experiment [5] (setting [12]), 139.0±1.2 fmol/mg protein; in experiment [5] (setting [13]) it was 240.7±2.5 fmol/mg protein; in experiment [5] (setting [14]), 256.8±2.9 fmol/mg protein. The IC50 with α4β2-nAChR is […]. Moreover, the “High Sensitivity 86Rb+ Efflux (maximal)” value is on record as 2.06±0.19 at α4β2*-nAChR [6] (setting [11]), 1.88±0.11 at α4β2*-nAChR [6] (setting [12]), 10.19±0.99 at α4β2*-nAChR [6] (setting [13]) and 6.76±1.19 on α4β2*-nAChR [6] (setting [14]). Moreover, the “Low Sensitivity 86Rb+ Efflux (maximal)” value worked out at 6.80±0.50 on α4β2*-nAChR [6] (setting [11]), 5.63±0.80 at α4β2*-nAChR [6] (setting [12]), 13.84±2.48 on α4β2*-nAChR [6] (setting [13]) and 12.52±1.96 on α4β2*-nAChR [6] (setting [14]). The “average dose for half-maximal upregulation of α4β2*-nAChR binding sites” value in experiment [7] was 0.44 mg/kg/h. For the same molecule, the “Difference in EC50 values” value on α4β2*-nAChR [3] is given as 94 fold.

Usually IC50 stands for the concentration needed to halve the response being measured. The Ki is the dissociation constant of the complex between target and ligand, obtained from inhibition or displacement.
